Source: ChEMBL document CHEMBL4190367, “Heterocyclic pharmacochemistry of new rhinovirus antiviral agents: A combined computational and experimental study” (Eur J Med Chem, 2017)

How the values were obtained:
rhinovirus B14 = experiment: Antiviral activity against Human rhinovirus B14 infected in human HeLa Rh cells assessed as protection against virus induced cytopathic effect after 3 days in presence of 10% inactivated FBS by MTT assay; format: functional, organism-based; details: Rhinovirus B, 72 h
[1] = Cytotoxicity in un-infected human HeLa Rh cells assessed as reduction in cell viability incubated for 3 days by MTT assay; format: cell-based
[2] = Selectivity index, ratio of CC50 for un-infected human HeLa Rh cells to EC50 for Human rhinovirus B14 infected in human HeLa Rh cells; format: toxicity, cell-based; details: read-out: Ratio CC50/EC50

Structure (SMILES) | EC50 (rhinovirus B14) | CC50 at 72 h [1] | selectivity ratio [2]
COc1cc(C[C@H](O)c2ccc(-c3cn[nH]c3)cc2)c([N+](=O)[O-])cc1OC | 0.25 µM | > 271 µM | > 1080
COc1cc(C[C@@H](O)c2ccc(C(F)(F)F)cc2)c([N+](=O)[O-])cc1OC | > 200 µM | 13.9 µM | 
COc1cc(CC(O)c2ccc(N3CCOCC3)cc2)c([N+](=O)[O-])cc1OC (stereo not drawn) | 11.7 µM | 193 µM | 16.5
COc1cc(CC(O)c2ccc(N3CCNCC3)cc2)c([N+](=O)[O-])cc1OC (stereo not drawn) | 238 µM | > 258 µM | 
COc1cc(C[C@@H](O)c2ccncc2)c([N+](=O)[O-])cc1OC | > 200 µM | 55.2 µM | 
COc1cc(CC(O)c2ccc(-n3cccn3)cc2)c([N+](=O)[O-])cc1OC (stereo not drawn) | 0.58 µM | > 271 µM | > 467
COc1cc(CC(O)c2ccc(-n3cncn3)cc2)c([N+](=O)[O-])cc1OC (stereo not drawn) | 0.92 µM | > 271 µM | > 295
COc1cc(CC(O)c2ccc(N3CCC(C)CC3)cc2)c([N+](=O)[O-])cc1OC (stereo not drawn) | 1.91 µM | > 250 µM | > 131
COc1cc(CC(O)c2ccc(-c3ccco3)cc2)c([N+](=O)[O-])cc1OC (stereo not drawn) | 0.61 µM | 32 µM | 52.5
COc1cc(CC(O)c2ccc(C(F)(F)F)cc2)c([N+](=O)[O-])cc1OC (stereo not drawn) | 2 µM | 49.7 µM | 
COc1cc(C[C@H](O)c2ccc(C#N)cc2)c([N+](=O)[O-])cc1OC | 0.26 µM | 178 µM | 685
COc1cc(CC(O)c2ccc(N3CCCC3)cc2)c([N+](=O)[O-])cc1OC (stereo not drawn) | 1.94 µM | > 269 µM | > 139
COc1cc(CC(O)c2ccc(-c3cnn(C)c3)cc2)c([N+](=O)[O-])cc1OC (stereo not drawn) | > 270 µM | 17.4 µM | 
COc1cc(C[C@@H](O)c2ccc(-n3cncn3)cc2)c([N+](=O)[O-])cc1OC | > 50 µM | > 271 µM | 
COc1cc(C[C@@H](O)c2cccnc2)c([N+](=O)[O-])cc1OC | > 200 µM | > 200 µM | 
CCOC(=O)N1CCN(c2ccc(C(O)Cc3cc(OC)c(OC)cc3[N+](=O)[O-])cc2)CC1 (stereo not drawn) | 18.1 µM | 33.8 µM | 1.9
COc1cc(C[C@H](O)c2ccc(C(F)(F)F)cc2)c([N+](=O)[O-])cc1OC | 0.46 µM | 41.8 µM | 90.8

Structure (SMILES) | EC50 (rhinovirus B14) | CC50 at 72 h [1] | selectivity ratio [2]
COc1cc(CC(O)c2ccc(-c3ccc(C(F)(F)F)nc3)cc2)c([N+](=O)[O-])cc1OC (stereo not drawn) | 8.96 µM | 152 µM | 16.9
COc1cc(CC(O)c2ccc(N3CCCCC3)cc2)c([N+](=O)[O-])cc1OC (stereo not drawn) | 1.88 µM | 53.9 µM | 28.7
COc1cc(C[C@H](O)c2cccnc2)c([N+](=O)[O-])cc1OC | 0.59 µM | > 200 µM | > 339
COc1cc(C[C@H](O)c2ccc(-n3cccn3)cc2)c([N+](=O)[O-])cc1OC | 0.35 µM | > 271 µM | > 774
COc1cc(C[C@@H](O)c2ccc(-n3cccn3)cc2)c([N+](=O)[O-])cc1OC | 42 µM | > 271 µM | > 6.5
COc1cc(CC(O)c2ccc(-c3cc(C(F)(F)F)nn3C)cc2)c([N+](=O)[O-])cc1OC (stereo not drawn) | > 222 µM | 12.1 µM | 
COc1cc(C[C@H](O)c2ccncc2)c([N+](=O)[O-])cc1OC | 1.16 µM | > 200 µM | > 172
COc1cc(CC(O)c2ccncc2)c([N+](=O)[O-])cc1OC (stereo not drawn) | 3.4 µM | > 263 µM | > 77
COc1cc(CC(O)c2cccnc2)c([N+](=O)[O-])cc1OC (stereo not drawn) | 2 µM | > 263 µM | > 131
COc1cc(CC(O)c2ccc(-c3cncnc3)cc2)c([N+](=O)[O-])cc1OC (stereo not drawn) | 2.22 µM | > 271 µM | > 122
COc1cc(CC(O)c2ccc(C#N)cc2)c([N+](=O)[O-])cc1OC (stereo not drawn) | 2.3 µM | 178 µM | 77.3
Cc1cc(CCCOc2c(C)cc(-c3noc(C(F)(F)F)n3)cc2C)on1 [PLECONARIL] |  | > 131 µM | > 437
COc1cc(C[C@@H](O)c2ccc(C#N)cc2)c([N+](=O)[O-])cc1OC | 10.6 µM | 178 µM | 16.8
COc1cc(CC(O)c2ccc(-c3cn[nH]c3)cc2)c([N+](=O)[O-])cc1OC (stereo not drawn) | 0.76 µM | > 271 µM | > 356
COc1cc(CC(O)c2ccc(-c3ccsc3)cc2)c([N+](=O)[O-])cc1OC (stereo not drawn) | 0.54 µM | 11.5 µM | 21.3
COc1cc(C[C@@H](O)c2ccc(-c3cn[nH]c3)cc2)c([N+](=O)[O-])cc1OC | 35.6 µM | > 271 µM | > 7.74
COc1cc(C[C@H](O)c2ccc(-n3cncn3)cc2)c([N+](=O)[O-])cc1OC | 0.34 µM | > 271 µM | > 797
